Test results: patent publication EP0251194A1, “Use of carbocyclic and heterocyclic condensed dihydropyridines for the preparation of cardioprotective remedies and heterocyclic and carbocyclic condensed dihydropyridines and methods and intermediates for their preparation” (BOEHRINGER INGELHEIM KG, priority 1986, dated 1988)

Assays:
[1] = system: myocardiale Radio-Calciumaufnahme; assay: Inhibition of isoprenaline-induced myocardial radio-calcium uptake in conscious rats (method of Arndts); type: in vivo, Ratten; conditions: peroral administration, dose that inhibits by 50 % the myocardial radio-calcium uptake caused by 30 mg/kg s.c. isoprenaline
Excerpt: Bekanntlich ist der myocardiale Ca⁺² -Gehalt ein Maß für die hypoxische bzw. die durch toxische Catecholamindosen hervorgerufene Herzschädigung (Higgins et al., Mol. Cell. Cardiol. 10: 427 - 438, 1984; Nakanishi et al., Am. J. Physiol. 242: 437 - 449, 1982; Fleckenstein, A., Vorträge der Erlanger Physiol. Tagung 1970, Ed. Keidel, Springer Verlag Berlin, Heidelberg, New York, 1971). Umgekehrt ist die Inhibition der hypoxischen oder Isoprenalin-bedingten mycardialen Calciumaufnahme ein Maß für die cardioprotektive Effektivität von Calciumantagonisten (Fleckenstein s.o.), von Calmodulininhibitoren (Higgins) und anderen Pharmaka, z.B. Betaadrenolytika (Arndts, Arzneimittelforschung 25: 1279 - 1284, 1975).
Die cardioprotektive Wirkung wurde an wachen Ratten nach subcutaner oder peroraler Wirkstoffgabe anhand der von Arndts (s.o.) beschriebenen Methode festgestellt, und die Wirkungsstärke der Testsubtanzen als H₅₀-Wert angegeben; dieser Wert entspricht der Dosis, die die durch eine Gabe von 30 (mg/kg; s.c.) Isoprenalin bedingte myocardiale Radio-Calciumaufnahme zu 50 % hemmt.

Isoliertes Rattenherz = assay: Isolated Langendorff heart, oxygen deficiency by reduced perfusion flow, time to onset of regular contractions; design: species or system Ratten; conditions: isolated rat heart; infusion of test substance during the O2 deficiency state (60 min, flow reduced 100-fold)
Experimental: Die Untersuchungen am isolierten Langendorff-Herzen wurden nach O. Langendorff, Pflügers Arch. 61, 291 (1895) mit kleinen Abwandlungen ausgeführt:
Isoliertes Rattenherz, retrograde Perfusion über die Aorta. Elektrische Stimulation (300 Impulse/min, Impulsdauer 1msec). Messung des linksventrikulär entwickelten Druckes mit flüssigkeitsgefülltem Latex-Ballon. Nach 20 min Aequilibrierung Auslösen eines Sauerstoff-Mangelzustandes mit 100-fach vermindertem Fluß durch Drosselung des Perfusionsflusses für 60 min, Rückkehr zu normalem Fluß bewirkt starken Anstieg der Grundspannung, unter Kontrollbedingungen setzt die Herztätigkeit nach 6 - 7 min unregelmäßig wieder ein, nach 15 - 18 min rascher Übergang zu regelmäßigen Kontraktionen. Cardioprotektiv wirksame Verbindungen verkürzen die Zeit bis zum Einsetzen regelmäßiger Kontraktionen. Infusion der Testsubstanz (gelöst in unbegastem Perfusionsmedium) während des O₂-Mangelzustandes herznah in das Perfusionssystem.
Die getesteten Verbindungen ergaben bei Anwendung in der unten angegebenen Konzentration eine signifikante Reduktion der Zeit bis zum Einsetzen regelmäßiger Kontraktionen.

Structure (SMILES)	H50-Wert [1]	Konzentration (signifikante Reduktion der Zeit bis zum Einsetzen regelmäßiger Kontraktionen) (Isoliertes Rattenherz)
COc1cc2c(cc1OC)C(=C(C(=O)NCCN1CCOCC1)c1ccccc1)NCC2 [Verbindung A]	0.73	
CCCCNC(=O)C(C1=NCCc2cc(OC)c(OC)cc21)c1ccccc1 (stereo not drawn) [Verbindung B]	0.50	13,3 ug/ml
